Laboratory results reported in patent US8067189B2, “Methods for determining sensitivity to vascular endothelial growth factor receptor-2 modulators by measuring the level of collagen type IV” (Bristol-Myers Squibb Company, priority 2005, dated 2011).

Experiments:
L2987 tumor xenograft = experiment: In vivo antitumor testing, L2987 tumor xenograft model; parameters: species or system mouse; details: L2987, nude mice, 100 mg/kg 1 qd×26
Experimental: In this example, the Table 2 biomarkers were identified using mouse xenograft tumor models that were treated with the example VEGFR-2 inhibitor.
Tumors were propagated in nude mice as subcutaneous (sc) transplants using tumor fragments obtained from donor mice. Tumor passage occurred approximately every two to four weeks. Tumors were then allowed to grow to the pre-determined size window (usually between 100-200 mg, tumors outside the range were excluded) and animals were evenly distributed to various treatment and control groups. Animals were treated with the example VEGFR-2 inhibitor (100 mg/kg 1 qd×26). Treated animals were checked daily for treatment related toxicity/mortality. […] Tumor response was determined by measurement of tumors with a caliper twice a week, until the tumors reached a predetermined target size of 1 gm or became necrotic. […]
Antitumor activity was determined in terms of primary tumor growth inhibition. This was determined in two ways: (i) calculating the relative median tumor weight (MTW) of treated (T) and control (C) mice at various time points (effects were expressed as % T/C); and (ii) calculating the tumor growth delay (T−C value), defined as the difference in time (days) required for the treated tumors (T) to reach a predetermined target size compared to those of the control group (C). […]

[1] = tested on: complement component 1, q subcomponent, receptor 1 (C1qR1); experiment: Immunohistochemistry of xenograft tumors; assay type: in vivo, mouse; details: treated xenograft tumors relative to un-treated tumors
Experimental: (§1) Tumors were propagated in nude mice as subcutaneous (sc) transplants using L2987 and HCT-116 cancer cell lines. Tumor passage occurred approximately every two to four weeks. Tumors were then allowed to grow to the pre-determined size window (100-200 mm^3, tumors outside the range were excluded) and animals were evenly distributed to various treatment and control groups. Animals were treated with the example VEGFR-2 inhibitor (100 mg/kg 1 qd×14 days). Treated animals were checked daily for treatment related toxicity/mortality. Each group of animals was weighed before the initiation of treatment (Wt1) and then again following the last treatment dose (Wt2). The difference in body weight (Wt2−Wt1) provided a measure of treatment-related toxicity. Tumor response was determined by measurement of tumors with a caliper twice a week, until the tumors reached a predetermined target size. Animals that were distributed to various treatment and control groups during the study were eventually sacrificed to obtain tumor and blood samples for genomic and protein analysis.
(§2) Tissue specimens collected for IHC were fixed by using 10% formalin. After fixation, the chemical fixative was discarded and the specimens were submerged in 70% ethanol before being embedded in paraffin blocks. Five micron tissue sections were cut from each block and placed on positively charged microscope slides. The tissue slides were de-paraffined by immersing in xylene. The slides were re-hydrated in 100% ethanol, 95% ethanol, and 70% ethanol. After re-hydration, the slides were washed several times with deionized water at room temperature. Multiple antigen retrieval conditions (Citra, Citra Plus, and AR10) were tested by use of the BioGenex EZ-retriever microwave to determine the best conditions. Staining optimization was performed in an automated BioGenex i6000 IHC system for each of the candidate marker antibodies independently. Both treated and un-treated xenografts were stained in the same run to minimize slide to slide variations. […]

[2] = tested on: angiotensin receptor-like 1 (AGTRL1); experiment: Immunohistochemistry of xenograft tumors; assay type: in vivo, mouse; details: treated xenograft tumors relative to un-treated tumors
Experimental: as §1, §2

[3] = tested on: Collagen type IV (COL4A1); experiment: Immunohistochemistry of xenograft tumors; assay type: in vivo, mouse; details: treated xenograft tumors relative to un-treated tumors
Experimental: as §1, §2

Compound: Cc1cc2c(F)c(Oc3ncnn4cc(OC[C@@H](C)OC(=O)[C@H](C)N)c(C)c34)ccc2[nH]1 [example VEGFR-2 inhibitor, [(1R),2S]-2-Aminopropionic acid 2-[4-(4-fluoro-2-methyl-1H-indol-5-yloxy)-5-methylpyrrolo[2,1-f][1,2,4]triazin-6-yloxy]-1-methylethyl ester]
- efficacy in mouse xenograft tumor model (L2987 tumor xenograft): highly responsive
- IHC staining of C1qR1 around tumor blood vessels following treatment [1]: negative or lesser degree of staining
- IHC staining of angiotensin receptor-like 1 (AGTRL1) around tumor blood vessels following treatment [2]: negative or lesser degree of staining
- IHC staining of Collagen type IV (COL4A1) around tumor blood vessels following treatment [3]: negative or lesser degree of staining
